Measured values published in patent US20220380319A1 (Bial - R&D Investments, S.A., priority 2019, published 2022).
Values after ≈ are worked out from the molar mass of the structure shown.

Legend:
[1] = Compound solubility in water
acid ceramidase = biological target: T1, acid ceramidase (Homo sapiens, UniProt Q13510); assay: Acid ceramidase inhibition, biochemical fluorescent assay with cell lysates overexpressing acid ceramidase, substrate Rbm14-12; settings: substrate Rbm14-12 6.3 μM
T1 construct: Cell lysates overexpressing acid ceramidase were used as the enzyme source; expressed in transfected cells
T1 sequence (Q13510 22-395): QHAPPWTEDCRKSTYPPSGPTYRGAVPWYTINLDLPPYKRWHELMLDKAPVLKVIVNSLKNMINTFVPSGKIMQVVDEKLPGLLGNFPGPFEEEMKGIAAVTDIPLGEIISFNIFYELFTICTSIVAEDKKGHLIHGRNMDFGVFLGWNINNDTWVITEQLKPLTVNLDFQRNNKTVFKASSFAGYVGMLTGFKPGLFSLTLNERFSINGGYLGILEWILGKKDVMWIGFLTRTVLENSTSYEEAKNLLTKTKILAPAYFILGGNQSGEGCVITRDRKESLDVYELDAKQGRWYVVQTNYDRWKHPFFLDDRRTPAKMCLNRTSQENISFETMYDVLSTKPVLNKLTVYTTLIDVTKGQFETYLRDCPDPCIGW
Method: The ability of exemplary compounds to inhibit acid ceramidase was measured.
Cell lysates overexpressing acid ceramidase were used as the enzyme source for compound potency determination in a biochemical fluorescent assay. Briefly, compounds were preincubated with 10 μg protein of cell lysates in a dose-response manner for 1 hr at RT in the assay buffer containing 25 mM NaAC and 100 mM NaCl, pH 4.5. The reaction was initiated by the addition of substrate Rbm14-12 at a final concentration of 6.3 μM. The reaction was run at RT for 1 hr before it was stopped by the addition of the stopping buffer containing 20% methanol (v/v), 1 mg/ml NaIO4, 0.1 M glycine, pH 10.6. The samples were incubated with the stopping buffer at RT for 1 hr to allow the fluorescent product to be formed. Finally, the plate was read with SpectraMax i3 plate reader (Molecular Devices) at ex360 nm and em446 nm. Data were collected and used to determine the IC50 values of compounds by curve fitting to the four-parameter inhibition equation.

[2] = pH 4.5, 1 hr preincubation at RT

solubility [1] [µg/mL] | IC50 (acid ceramidase; pH 4.5) [nM] | IC50 (acid ceramidase; [2]) [nM] | SMILES
9 (≈ 23.4 µM) | < 200 |  | COc1nc2cc(N3CCOCC3)ccc2n1C(=O)NCC1(CC2CC2)CC1 [Example 229b, N-((1-(cyclopropylmethyl)cyclopropyl)methyl)-2-methoxy-5-morpholino-1H-benzo[d]imidazole-1-carboxamide]
20.4 (≈ 53.6 µM) |  | < 200 | COc1cc2ncn(C(=O)NCCc3ccccc3)c2cc1N1CCOCC1 [Example 38a, 5-Methoxy-6-morpholino-N-phenethyl-1H-benzo[d]imidazole-1-carboxamide]
26.5 (≈ 81.4 µM) |  | < 200 | COc1cc2ncn(C(=O)NCC(C)C)c2cc1-c1cncnc1 [Example 79b, N-iso-butyl-5-methoxy-6-(pyrimidin-5-yl)-1H-benzo[d]imidazole-1-carboxamide]
7 (≈ 16.9 µM) |  | < 200 | COc1nc2cc(N3CCOCC3)c(F)cc2n1C(=O)NCCOc1ccccc1 [Example 335b, 6-fluoro-2-methoxy-5-morpholino-N-(2-phenoxyethyl)-1H-benzo[d]imidazole-1-carboxamide]
0.6 (≈ 1.75 µM) |  | < 200 | O=C(NCCc1ccccc1)n1cnc2ccc(-c3cccnc3)cc21 [Example 10b, N-phenethyl-6-(pyridin-3-yl)-1H-benzo[d]imidazole-1-carboxamide]
14.5 (≈ 42.2 µM) |  | < 200 | O=C(NCCc1ccccc1)n1cnc2ccc(-c3cncnc3)cc21 [Example 8b, N-phenethyl-6-(pyrimidin-5-yl)-1H-benzo[d]imidazole-1-carboxamide]
33 (≈ 74.6 µM) | > 1000 |  | COc1nc2cc(N3CCN(C4CN(C)C4)CC3)c(F)cc2n1C(=O)NCC#CC(C)C [Example 320a, 6-Fluoro-2-methoxy-5-(4-(1-methylazetidin-3-yl)piperazin-1-yl)-N-(4-methylpent-2-yn-1-yl)-1H-benzo[d]imidazole-1-carboxamide]
1.2 (≈ 3.5 µM) |  | < 200 | O=C(NCCc1ccccc1)n1cnc2cc(-c3cccnc3)ccc21 [Example 10a, N-Phenethyl-5-(pyridin-3-yl)-1H-benzo[d]imidazole-1-carboxamide]
17 (≈ 43.1 µM) |  | < 200 | COc1nc2ccc(N3CCOCC3)cc2n1C(=O)NCCCc1ccccc1 [Example 134a, 2-Methoxy-6-morpholino-N-(3-phenylpropyl)-1H-benzo[d]imidazole-1-carboxamide]
7.5 (≈ 19.5 µM) |  | < 200 | CCCCNC(=O)n1cnc2cc(N3CCC(N4CCOCC4)CC3)ccc21 [Example 101b, N-butyl-5-(4-morpholinopiperidin-1-yl)-1H-benzo[d]imidazole-1-carboxamide]
46 (≈ 95.7 µM) | 200 to 1000 |  | COc1nc2cc(F)c(N3CCN(C4CN(C)C4)CC3)cc2n1C(=O)NCCCc1ccccc1 [Example 319b, 5-fluoro-2-methoxy-6-(4-(1-methylazetidin-3-yl)piperazin-1-yl)-N-(3-phenylpropyl)-1H-benzo[d]imidazole-1-carboxamide]

The remaining lines, values behind:

SMILES | solubility [1] [µg/mL] | IC50 (acid ceramidase; pH 4.5) [nM] | IC50 (acid ceramidase; [2]) [nM]
O=C(NCCCc1ccccc1)n1cnc2c(N3CCC4(CC3)COC4)cccc21 [Example 216, N-(3-Phenylpropyl)-4-(2-oxa-7-azaspiro[3.5]nonan-7-yl)-1H-benzo[d]imidazole-1-carboxamide] | 2.5 (≈ 6.18 µM) | < 200 | 
CC(C)CCNC(=O)n1cnc2c(N3CC(N4CCN(C)CC4)C3)cccc21 [Example 205, N-iso-Pentyl-4-(3-(4-methylpiperazin-1-yl)-azetidine-1-yl)-1H-benzo[d]imidazole-1-carboxamide] | 31 (≈ 80.6 µM) | 200 to 1000 | 
CC(C)CCNC(=O)n1cnc2c(N3CCN4CCCCC4C3)cccc21 (stereo not drawn) [Example 198, 4-(Hexahydro-1H-pyrido[1,2-a]pyrazin-2(6H)-yl)-N-iso-pentyl-1H-benzo[d]imidazole-1-carboxamide] | 28 (≈ 75.8 µM) | 200 to 1000 | 
CN1CCN(c2cccc3c2ncn3C(=O)NCCCC(F)(F)F)CC1 [Example 255, 4-(4-Methylpiperazin-1-yl)-N-(4,4,4-trifluorobutyl)-1H-benzo[d]imidazole-1-carboxamide] | 35 (≈ 94.8 µM) | 200 to 1000 | 
CC(C)C#CCNC(=O)n1cnc2c(N3CCC4(CCCN4C)CC3)cccc21 [Example 311, 4-(1-Methyl-1,8-diazaspiro[4.5]decan-8-yl)-N-(4-methylpent-2-yn-1-yl)-1H-benzo[d]imidazole-1-carboxamide] | 31 (≈ 78.8 µM) | < 200 | 
CN1CCC(c2cccc3c2ncn3C(=O)NCCOc2ccccc2)CC1 [Example 45, 4-(1-Methylpiperidin-4-yl)-N-(2-phenoxyethyl)-1H-benzo[d]imidazole-1-carboxamide] | 23.5 (≈ 62.1 µM) |  | < 200
N#Cc1cccc2c1ncn2C(=O)NCCOc1ccccc1 [Example 74, 4-Cyano-N-(2-phenoxyethyl)-1H-benzo[d]imidazole-1-carboxamide] | 5.9 (≈ 19.3 µM) |  | < 200
CC(C)C#CCNC(=O)n1cnc2c(N3CCC4(CC3)CCN4C)cccc21 [Example 313, 4-(1-Methyl-1,7-diazaspiro[3.5]nonan-7-yl)-N-(4-methylpent-2-yn-1-yl)-1H-benzo[d]imidazole-1-carboxamide] | 29 (≈ 76.4 µM) | < 200 | 
CN1CCC(c2cccc3c2ncn3C(=O)NCCCc2ccccc2)C1 (stereo not drawn) [Example 267, 4-(1-Methylpyrrolidin-3-yl)-N-(3-phenylpropyl)-1H-benzo[d]imidazole-1-carboxamide] | 25 (≈ 69 µM) | < 200 | 
COc1nc2c(N3CCC(F)(F)CC3)cccc2n1C(=O)NCCC(C)C [Example 144, 4-(4,4-Difluoropiperidin-1-yl)-N-isopentyl-2-methoxy-1H-benzo[d]imidazole-1-carboxamide] | 1.2 (≈ 3.15 µM) |  | > 1000
CC(C)CCNC(=O)n1cnc2c(N3CC4(COC4)C3)cccc21 [Example 176] | 22 (≈ 67 µM) | 200 to 1000 | 
O=C(NCCOc1ccccc1)n1cnc2ncccc21 [Example 62, N-(2-Phenoxyethyl)-1H-imidazo[4,5-b]pyridine-1-carboxamide] | 26.6 (≈ 94.2 µM) |  | < 200
O=C(NC1CCCCC1)n1cnc2c(N3CCN(C4CC4)CC3)cccc21 [Example 148, N-Cyclohexyl-4-(4-cyclopropylpiperazin-1-yl)-1H-benzo[d]imidazole-1-carboxamide] | 3 (≈ 8.16 µM) |  | > 1000
O=C(NCCc1ccccc1)n1c(OCCN2CCOCC2)nc2ccccc21 [Example 357, 2-(2-Morpholinoethoxy)-N-phenethyl-1H-benzo[d]imidazole-1-carboxamide] | 6 (≈ 15.2 µM) |  | 200 to 1000
CC(C)CCNC(=O)n1cnc2c(N3C[C@@H](C)O[C@@H](C)C3)cccc21 [Example 167, 4-((2S,6R)-2,6-Dimethylmorpholino)-N-iso-pentyl-1H-benzo[d]imidazole-1-carboxamide] | 4 (≈ 11.6 µM) | 200 to 1000 | 
CC(C)CCNC(=O)n1cnc2c(N3CCN4CCOC[C@H]4C3)cccc21 [Example 199, (R)-4-(Hexahydropyrazino[2,1-c][1,4]oxazin-8(1H)-yl)-N-isopentyl-1H-benzo[d]imidazole-1-carboxamide] | 31 (≈ 83.4 µM) | > 1000 | 
CN1CC2CCC1CN2c1cccc2c1ncn2C(=O)NCCCc1ccccc1 (stereo not drawn) [Example 247, 4-(5-Methyl-2,5-diazabicyclo[2.2.2]octan-2-yl)-N-(3-phenylpropyl)-1H-benzo[d]imidazole-1-carboxamide] | 28 (≈ 69.4 µM) | < 200 | 
CN1CCC(c2ccc3c(c2)ncn3C(=O)NCCc2ccccc2)CC1 [Example 4, 5-(1-Methylpiperidin-4-yl)-N-phenethyl-1H-bezo[d]imidazole-1-carboxamide] | 20.6 (≈ 56.8 µM) |  | < 200
CN1CCN(c2cccc3c2ncn3C(=O)NCc2ccn3cccc3c2)CC1 [Example 347, N-(Indolizin-7-ylmethyl)-4-(4-methylpiperazin-1-yl)-1H-benzo[d]imidazole-1-carboxamide] | 25 (≈ 64.4 µM) |  | < 200
COc1nc2cc(N3CCOCC3)c(F)cc2n1C(=O)NCCCCc1ccccc1 [Example 215, 6-Fluoro-2-methoxy-5-morpholino-N-(4-phenylbutyl)-1H-benzo[d]imidazole-1-carboxamide] | 0.3 (≈ 0.703 µM) | < 200 | 
O=C(NCCCc1ccccc1)n1cnc2c(N3CCN(C4CC4)CC3)cccc21 [Example 150, 4-(4-Cyclopropylpiperazin-1-yl)-N-(3-phenylpropyl)-1H-benzo[d]imidazole-1-carboxamide] | 1.5 (≈ 3.72 µM) |  | < 200
COc1nc2c(C#N)cccc2n1C(=O)NCC#CC(C)C [Example 140, 4-Cyano-2-methoxy-N-(4-methylpent-2-ynyl)-1H-benzo[d]imidazole-1-carboxamide] | 10 (≈ 33.7 µM) |  | < 200
